Where only a bound is given, the exact number is not on record here.

Broadly, the IC50 is the concentration needed to halve the response being measured. A low value points to greater potency.

This test has as its target HIV IN (Human immunodeficiency virus type 1 group M subtype B, UniProt P04585). The test can be described thus: HIV IN 3′ processing. Type of test: biochemical.
In turn, `CNC(=O)c1nc(C)n(Cc2ccc(F)cc2)c(=O)c1O` [compound 6] gave an IC50 greater than 333 µM.

`CNC(=O)c1nc(Cc2ccc(F)cc2)[nH]c(=O)c1O` [compound 7] gave an IC50 greater than 333 µM.

For the molecule `COCCNC(=O)c1nc(Cc2ccc(F)cc2)[nH]c(=O)c1O` [compound 8], the IC50 was greater than 333 µM.

`CN(C)CCCNC(=O)c1nc(Cc2ccc(F)cc2)[nH]c(=O)c1O` [compound 9] displayed a 50% inhibitory concentration (IC50) greater than 333 µM.

Molecule `O=C(O)c1nc(Cc2ccc(F)cc2)[nH]c(=O)c1O` [compound 10] gave a concentration for half-maximal inhibition (IC50) greater than 333 µM.

Take `CNC(=O)c1nc(Cc2ccc(F)cc2)n(C)c(=O)c1O` [compound 11]: the IC50 was greater than 333 µM.

The record behind these values is publication PMC7323870 (Bioorganic & medicinal chemistry letters, 2010).
